Measured values reported in EP1222183B1, “BENZOPYRAN DERIVATIVES” (priority 1999, dated 2001).

Columns and labels:
[1] = system: prostatic urethral pressure; test: Inhibition of urethral contractions induced by noradrenaline injection in anaesthetised dogs after i.v. administration; format: in vivo; conditions: dog; for ED50: Canis lupus familiaris, iv, dose inhibiting by 50% the urethral contractions induced by noradrenaline, read-out: UC ID50; for DBP/UC: ratio between the active doses (DBP ED25 / UC ID50)
Experimental: The experiments were performed according to the method of Imagawa J. et al., J. Pharmacol. Methods 22, 103-111, 1989, with substantial modifications, as follows: adult male beagle dogs, weighing 8-10 kg, were anaesthetised with pentobarbital sodium (30 mg/kg i.v. and 2 mg/kg/h i.v.), intubated and spontaneously ventilated with room air. In order to monitor systemic blood pressure (BP), a polyethylene (PE) catheter was introduced into the aortic arch through the left femoral artery. A collateral of the left femoral vein was cannulated for infusion of anaesthetic, and the right femoral vein was cannulated for administration of compounds. For intra-arterial (i.a.) injection of noradrenaline (NA), a PE catheter was introduced into the lower portion of the abdominal aorta via the right external iliac artery. Through such procedure, NA was selectively distributed to the lower urinary tract. A paramedian vertical suprapubic incision extending from the base of the pelvis to the mid-abdominal region was made and the bladder and prostate were exposed. The bladder was manually emptied with a syringe. Prostatic urethral pressure was monitored with a Mikro-tip cathe[…]) introduced into the bladder via the external urethral meatus, and withdrawn until the pressure transducer was positioned in the prostatic region of the urethra. A ligature was secured between the neck of the bladder and urethra to isolate the response of the latter and to avoid any interaction with the bladder. Another ligature was put around the Mikro-tip catheter at the external meatus, to secure the catheter itself. […] In order to compare the effects of the administered compound, dose/response curves (log dose transformation) were constructed by computing, at the peak effect, the percent decrease in diastolic blood pressure and the percent inhibition of the increase in urethral pressure induced by NA.

diastolic blood pressure = test: Effect on diastolic blood pressure in anaesthetised dogs after i.v. administration; format: in vivo; conditions: dog, dose lowering diastolic blood pressure by 25%
Experimental: The experiments were performed according to the method of Imagawa J. et al., J. Pharmacol. Methods 22, 103-111, 1989, with substantial modifications, as follows: adult male beagle dogs, weighing 8-10 kg, were anaesthetised with pentobarbital sodium (30 mg/kg i.v. and 2 mg/kg/h i.v.), intubated and spontaneously ventilated with room air. In order to monitor systemic blood pressure (BP), a polyethylene (PE) catheter was introduced into the aortic arch through the left femoral artery. A collateral of the left femoral vein was cannulated for infusion of anaesthetic, and the right femoral vein was cannulated for administration of compounds. For intra-arterial (i.a.) injection of noradrenaline (NA), a PE catheter was introduced into the lower portion of the abdominal aorta via the right external iliac artery. Through such procedure, NA was selectively distributed to the lower urinary tract. A paramedian vertical suprapubic incision extending from the base of the pelvis to the mid-abdominal region was made and the bladder and prostate were exposed. The bladder was manually emptied with a syringe. Prostatic urethral pressure was monitored with a Mikro-tip catheter (5F) introduced into the bladder via the external urethral meatus, and withdrawn until the pressure transducer was positioned in the prostatic region of the urethra. A ligature was secured between the neck of the bladder and urethra to isolate the response of the latter and to avoid any interaction with the bladder. Another ligature was put around the Mikro-tip catheter at the external meatus, to secure the catheter itself. After a stabilising period following the surgical procedure (30 minutes), in which arterial and prostatic urethral pressure were continuously monitored as basal values, i.a. administration of NA was made at intervals of 20 minutes. The doses of NA chosen were such to produce an increase of at least 100% in urethral pressure. The test compounds were administered i.v. in a cumulative manner with intervals of 15-20 minutes between administrations. I.a. injections of NA were repeated 5 minutes after every dosing of test compound with intervals of about 10 minutes between stimulations. In order to compare the effects of the administered compound, dose/response curves (log dose transformation) were constructed by computing, at the peak effect, the percent decrease in diastolic blood pressure and the percent inhibition of the increase in urethral pressure induced by NA.

[2] = molecular target: T1, human 5-HT1A-serotoninergic receptor (Homo sapiens, UniProt P08908); test: Radioligand binding ([3H]8-OH-DPAT) to cloned 5-HT1A receptor in HeLa cell membranes; conditions: cloned human receptor in HeLa cells, 1.2 nM [3H]8-OH-DPAT, 30 minutes at 30°C; read-out: Affinity (Ki) 5-HT1A
T1 construct: expressed in transfected cells; host or cells: HeLa (human), stably transfected
T1 sequence (P08908 1-422): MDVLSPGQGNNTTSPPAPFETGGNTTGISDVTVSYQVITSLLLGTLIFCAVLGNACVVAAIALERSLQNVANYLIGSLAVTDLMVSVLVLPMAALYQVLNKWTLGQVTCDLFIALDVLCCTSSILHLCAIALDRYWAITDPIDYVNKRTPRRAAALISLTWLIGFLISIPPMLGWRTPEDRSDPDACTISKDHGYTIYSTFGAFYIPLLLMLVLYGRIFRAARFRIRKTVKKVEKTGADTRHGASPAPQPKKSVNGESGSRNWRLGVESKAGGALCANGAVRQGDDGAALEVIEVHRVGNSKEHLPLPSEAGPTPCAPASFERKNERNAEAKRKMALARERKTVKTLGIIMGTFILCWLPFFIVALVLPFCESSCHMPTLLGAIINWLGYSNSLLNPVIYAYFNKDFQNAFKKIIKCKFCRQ

[3] = system: prostatic urethral pressure; conditions: dog, i.v., dose inhibiting by 50% the urethral contractions induced by noradrenaline; data from Leonardi A. et al. 1997; cited from earlier work

Row | Ki [2] [nM] | Compound | ED50 [1] [mg/kg] | DBP/UC [1] | DBP ED25 (diastolic blood pressure) [mg/kg] | UC ID50 [3] [mg/kg]
1 |  | COc1ccc(Cl)cc1N1CCN(CCCNC(=O)c2cccc3c(=O)c(C)c(C(N)=O)oc23)CC1 [Example 1, 2-Carbamoyl-8-{3-[4-(5-chloro-2-methoxyphenyl)-1-piperazinyl]-propylcarbamoyl}-3-methyl-4-oxo-4H-1-benzopyran] | 0.0118 | 234.7 | 2.769 | 
2 |  | CCOC(=O)c1oc2c(C(=O)NCCCN3CCN(c4cc(Cl)ccc4OC)CC3)cccc2c(=O)c1C [Example 4, 2-Ethoxycarbonyl-8-{3-[4-(5-chloro-2-methoxyphenyl)-1-piperazinyl]-propylcarbamoyl}-3-methyl-4-oxo-4H-1-benzopyran] | 0.0023 | 71.0 | 0.1633 | 
3 | > 1000 | COc1ccc(OCC(F)(F)F)cc1N1CCN(CCCNC(=O)c2cccc3c(=O)c(C)c(C(N)=O)oc23)CC1 [Example 9, 2-Carbamoyl-8-<3-{4-[2-methoxy-5-(2,2,2-trifluoroethoxy)-phenyl]-1-piperazinyl}-propylcarbamoyl>-3-methyl-4-oxo-4H-1-benzopyran] |  |  |  | 
4 |  | Cc1c(-c2ccccc2)oc2c(C(=O)NCCCN3CCN(c4ccccc4OCC(F)(F)F)CC3)cccc2c1=O [Example 15, 8-<3-{4-[2-(2,2,2-Trifluoroethoxy)-phenyl]-1-piperazinyl}propylcarbamoyl>-3-methyl-4-oxo-2-phenyl-4H-1-benzopyran] | 0.0049 | 612 | 3.001 | 
5 |  | COc1ccc(C#N)cc1N1CCN(CCCNC(=O)c2cccc3c(=O)c(C)c(-c4ccccc4)oc23)CC1 [Example 18, 8-{3-[4-(5-Cyano-2-methoxyphenyl)-1-piperazinyl]-propylcarbamoyl}-3-methyl-4-oxo-2-phenyl-4H-1-benzopyran] | 0.0341 | 38.05 | 1.2976 | 
6 |  | Cc1c(-c2ccccc2)oc2c(C(=O)NCCCN3CCN(c4cc(Cl)ccc4OCC(F)(F)F)CC3)cccc2c1=O [Example 22, 8-<3-{4-[5-Chloro-2-(2,2,2-trifluoroethoxy)-phenyl]-1-piperazinyl}-propylcarbamoyl>-3-methyl-4-oxo-2-phenyl-4H-1-benzopyran] | 0.0195 | 64.92 | 1.266 | 
7 |  | COc1cc2nc(N3CCN(C(=O)C4CCCO4)CC3)nc(N)c2cc1OC (centres unmarked) [Terazosin, terazosin] |  |  |  | 0.0206
